Test system: c-Myc
Experiment: c-Myc immunofluorescence assay
Type: cell-based, human
Conditions: A549 cells, 24 hours treatment, anti-c-Myc immunofluorescence
In short: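 A549 cells grown 48 h, exposed 24 h to rising compound concentrations, then fixed, permeabilised and stained for c-Myc plus DAPI. Nuclear-segmented c-Myc fluorescence quantified by high-content imaging at 20×; EC50 from logistic dose–response fits.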

SMILES	Myc Efficacy (−LogEC50)
CNC(=O)c1ccc(-c2cn3c(n2)sc2cc(C(=O)NCc4ccccc4)ccc23)cc1 [compound 275, N-benzyl-2-(4-(methylcarbamoyl)phenyl) benzo[d]imidazo[2,1-b]thiazole-7-carboxamide]	− (− ≤3)
CCN(CC)CCCNC(=O)c1ccc2c(c1)sc1nc(-c3ccc(CN(C)C)cc3)cn12 [compound 276, N-(3-(diethylamino)propyl)-2-(4-((dimethylamino)methyl)phenyl)benzo[d]imidazo[2,1-b]thiazole-7-carboxamide]	+++ (+++ ≥6)
CCN(CC)CCCNC(=O)c1ccc2c(c1)sc1nc(-c3ccc(CO)cc3)cn12 [compound 277, N-(3-(diethylamino)propyl)-2-(4-(hydroxymethyl)phenyl) benzo[d]imidazo[2,1-b] thiazole-7-carboxamide]	++ (++ ≥5 and <6)
CNC(=O)c1ccc(-c2cn3c(n2)sc2cc(C(=O)NCC4(C)CNC4)ccc23)cc1 [compound 278, N-((3-methylazetidin-3-yl)methyl)-2-(4-(methylcarbamoyl)phenyl) benzo[d]imidazo[2,1-b]thiazole-7-carboxamide]	− (− ≤3)
CNC(=O)c1ccc(-c2cn3c(n2)sc2cc(C(=O)NCC4CC5(CC5)CN4)ccc23)cc1 (centres unmarked) [compound 279, N-((5-azaspiro[2.4]heptan-6-yl)methyl)-2-(4-(methylcarbamoyl)phenyl) benzo[d]imidazo[2,1-b]thiazole-7-carboxamide]	− (− ≤3)
CNC(=O)c1ccc(-c2cn3c(n2)sc2cc(C(=O)NC4CC(C)C4)ccc23)cc1 (centres unmarked) [compound 280, 2-(4-(methylcarbamoyl)phenyl)-N-(3-methylcyclobutyl)benzo[d] imidazo[2,1-b]thiazole-7-carboxamide]	++ (++ ≥5 and <6)
CNC(=O)c1ccc(-c2cn3c(n2)sc2cc(C(=O)NCCCN4CCCCC4)ccc23)c(F)c1 [compound 281, 2-(2-fluoro-4-(methylcarbamoyl)phenyl)-N-(3-(piperidin-1-yl)propyl)benzo[d]imidazo [2,1-b]thiazole-7-carboxamide]	++ (++ ≥5 and <6)
CCNC(=O)c1ccc(-c2cn3c(n2)sc2cc(C(=O)NCCCN(CC)CC)ccc23)cc1 [compound 282, N-(3-(diethylamino)propyl)-2-(4-(ethylcarbamoyl)phenyl) benzo[d]imidazo[2,1-b]thiazole-7-carboxamide]	+ (+ >3 and <5)
CCN(CC)CCCNC(=O)c1ccc2c(c1)sc1nc(-c3ccc(C(=O)NC(C)C)cc3)cn12 [compound 283, N-(3-(diethylamino)propyl)-2-(4-(isopropylcarbamoyl)phenyl) benzo[d]imidazo[2,1-b]thiazole-7-carboxamide]	+ (+ >3 and <5)
CCN(CC)CCCNC(=O)c1ccc2c(c1)sc1nc(-c3ccc(C(=O)NCCOC)cc3)cn12 [compound 284, N-(3-(diethylamino)propyl)-2-(4-((2-methoxyethyl)carbamoyl)phenyl)benzo[d]imidazo[2,1-b]thiazole-7-carboxamide]	+ (+ >3 and <5)
CCN(CC)CCCNC(=O)c1ccc2c(c1)sc1nc(-c3ccc(C(=O)NCCO)cc3)cn12 [compound 285, N-(3-(diethylamino)propyl)-2-(4-((2-hydroxyethyl)carbamoyl)phenyl)benzo[d]imidazo[2,1-b]thiazole-7-carboxamide]	+ (+ >3 and <5)
CCN(CC)CCCNC(=O)c1ccc2c(c1)sc1nc(-c3ccc(C(=O)NC4CCN(C)C4)cc3)cn12 (centres unmarked) [compound 286, N-(3-(diethylamino)propyl)-2-(4-((1-methylpyrrolidin-3-yl)carbamoyl)phenyl)benzo [d]imidazo[2,1-b]thiazole-7-carboxamide]	++ (++ ≥5 and <6)
CCN(CC)CCCNC(=O)c1ccc2c(c1)sc1nc(-c3ccc(C(=O)NC4CCNCC4)cc3)cn12 [compound 287, N-(3-(diethylamino)propyl)-2-(4-(piperidin-4-ylcarbamoyl)phenyl)benzo [d]imidazo[2,1-b]thiazole-7-carboxamide]	+ (+ >3 and <5)
CCN(CC)CCCNC(=O)c1ccc2c(c1)sc1nc(-c3ccc(CNC)cc3)cn12 [compound 288, N-(3-(diethylamino)propyl)-2-(4-((methylamino)methyl)phenyl) benzo[d]imidazo[2,1-b]thiazole-7-carboxamide]	+++ (+++ ≥6)
CCN(CC)CCCNC(=O)c1ccc2c(c1)sc1nc(-c3ccc(CN4CCCC4)cc3)cn12 [compound 289, N-(3-(diethylamino)propyl)-2-(4-(pyrrolidin-1-ylmethyl)phenyl)benzo[d] imidazo[2,1-b]thiazole-7-carboxamide]	+++ (+++ ≥6)
NCc1ccc(-c2cn3c(n2)sc2cc(C(=O)NCCCN4CCCCC4)ccc23)cc1 [compound 290, 2-(4-(aminomethyl)phenyl)-N-(3-(piperidin-1-yl)propyl)benzo[d]imidazo [2,1-b]thiazole-7-carboxamide]	+++ (+++ ≥6)

SMILES	Myc Efficacy (−LogEC50)
CCN(CC)CCCNC(=O)c1ccc2c(c1)sc1nc(-c3ccc(C(=O)NC)c(F)c3)cn12 [compound 291]	+ (+ >3 and <5)
CCN(CC)CCCNC(=O)c1ccc2c(c1)sc1nc(-c3ccc(CNCCOC)cc3)cn12 [compound 292, N-(3-(diethylamino)propyl)-2-(4-(((2-methoxyethyl)amino)methyl)phenyl)benzo[d]imidazo[2,1-b]thiazole-7-carboxamide]	+++ (+++ ≥6)
CCN(CC)CCCNC(=O)c1ccc2c(c1)sc1nc(-c3ccc([C@@H](NC)C(F)(F)F)cc3)cn12 [compound 293, (R)-N-(3-(diethylamino)propyl)-2-(4-(2,2,2-trifluoro-1-(methylamino)ethyl)phenyl) benzo[d]imidazo[2,1-b]thiazole-7-carboxamide]	++ (++ ≥5 and <6)
CCN(CC)CCCNC(=O)c1ccc2c(c1)sc1nc(-c3ccc([C@H](NC)C(F)(F)F)cc3)cn12 [compound 294, (S)-N-(3-(diethylamino)propyl)-2-(4-(2,2,2-trifluoro-1-(methylamino)ethyl)phenyl) benzo[d]imidazo[2,1-b]thiazole-7-carboxamide]	++ (++ ≥5 and <6)
CCN(CC)CCCNC(=O)c1ccc2c(c1)sc1nc(-c3ccc(C(=O)NCCNC)cc3)cn12 [compound 295, N-(3-(diethylamino)propyl)-2-(4-((2-(methylamino)ethyl)carbamoyl)phenyl)benzo[d] imidazo[2,1-b]thiazole-7-carboxamide]	++ (++ ≥5 and <6)
CCN(CC)CCCNC(=O)c1ccc2c(c1)sc1nc(-c3ccc(C(=O)NC4CCNC4)cc3)cn12 (centres unmarked) [compound 296, N-(3-(diethylamino)propyl)-2-(4-(pyrrolidin-3-ylcarbamoyl)phenyl)benzo[d] imidazo[2,1-b]thiazole-7-carboxamide]	+ (+ >3 and <5)
CCN(CC)CCCNC(=O)c1ccc2c(c1)sc1nc(-c3ccc(C(=O)NCCN)cc3)cn12 [compound 297, 2-(4-((2-aminoethyl)carbamoyl)phenyl)-N-(3-(diethylamino)propyl)benzo [d]imidazo[2,1-b]thiazole-7-carboxamide]	+ (+ >3 and <5)
CCN(CC)CCCNC(=O)c1ccc2c(c1)sc1nc(-c3ccc(CN)cc3F)cn12 [compound 298, 2-(4-(aminomethyl)-2-fluorophenyl)-N-(3-(diethylamino)propyl)benzo [d]imidazo[2,1-b]thiazole-7-carboxamide]	+++ (+++ ≥6)
CCN(CC)CCCNC(=O)c1ccc2c(c1)sc1nc(-c3cccc(CN)c3)cn12 [compound 299, 2-(3-(aminomethyl)phenyl)-N-(3-(diethylamino)propyl) benzo[d]imidazo[2,1-b] thiazole-7-carboxamide]	++ (++ ≥5 and <6)
CCN(CC)CCCNC(=O)c1ccc2c(c1)sc1nc(-c3ccc(CNC4CC4)cc3)cn12 [compound 300, 2-(4-((cyclopropylamino)methyl)phenyl)-N-(3-(diethylamino)propyl)benzo [d]imidazo[2,1-b]thiazole-7-carboxamide]	+++ (+++ ≥6)
CNC(=O)c1ccc(-c2cn3c(n2)sc2cc(C(=O)N[C@@H]4CCCN(C)C4)ccc23)cc1 [compound 301, (R)-2-(4-(methylcarbamoyl)phenyl)-N-(1-methylpiperidin-3-yl)benzo[d]imidazo[2,1-b]thiazole-7-carboxamide]	+ (+ >3 and <5)
CNC(=O)c1ccc(-c2cn3c(n2)sc2cc(C(=O)NCC[C@@H]4CCCN4C)ccc23)cc1 [compound 303, (S)-2-(4-(methylcarbamoyl)phenyl)-N-(2-(1-methylpyrrolidin-2-yl)ethyl)benzo[d]imidazo [2,1-b]thiazole-7-carboxamide]	+ (+ >3 and <5)
O=C(NCCCN1CCCCC1)c1ccc2c(c1)sc1nc(-c3ccncc3)cn12 [compound 306, N-(3-(piperidin-1-yl)propyl)-2-(pyridin-4-yl)benzo[d]imidazo[2,1-b]thiazole-7-carboxamide]	++ (++ ≥5 and <6)
CCN(CC)CCCNC(=O)c1ccc2c(c1)sc1nc(-c3ccc(N4CCOCC4)cc3)cn12 [compound 307, N-(3-(diethylamino)propyl)-2-(4-morpholinophenyl)benzo[d] imidazo[2,1-b]thiazole-7-carboxamide]	++ (++ ≥5 and <6)
CCN(CC)CCCNC(=O)c1ccc2c(c1)sc1nc(-c3cccc(C4COC4)c3)cn12 [compound 308, N-(3-(diethylamino)propyl)-2-(3-(oxetan-3-yl)phenyl)benzo[d]imidazo [2,1-b]thiazole-7-carboxamide]	+ (+ >3 and <5)
CNC(=O)c1ccc(-c2cn3c(n2)sc2cc(C(=O)NCCCN4CCC(F)CC4)ccc23)cc1 [compound 309, N-(3-(4-fluoropiperidin-1-yl)propyl)-2-(4-(methylcarbamoyl)phenyl) benzo[d]imidazo[2,1-b]thiazole-7-carboxamide]	++ (++ ≥5 and <6)

Reference: patent US12404283B2, “c-MYC mRNA translation modulators and uses thereof in the treatment of cancer” (Anima Biotech Inc., priority 2022, dated 2025)
